From US4661297A, “Basic ethers of 7-oxo-7H-benzo(c) fluorene and a process for their production” (SPOFA, spojene podniky pro zdravotnickou vyrobu, priority 1980, dated 1987)
Numbered stars: 1 amine (or outer) side, 2 acyl side, 3 side chain; on linkers, the order of the positions; unused ones are H or OH. Bridge positions count the residues as written; N and C are the ends. Square brackets hold non-standard residues; d marks the D form. Peptide text beside a SMILES is read from it. I, II: the chains in the order shown. Actinocin(9to1) = Cc1c2oc3c(C)ccc(C(=O)[*:1])c3nc-2c(C(=O)[*:2])c(N)c1=O; NMeV = CN[C@H](C(=O)O)C(C)C; Sar = CNCC(=O)O

Tested on: DNA, RNA and protein biosynthesis
Assay: Effect on DNA, RNA and protein biosynthesis (substrate incorporation)
Assay type: cell-based
From the text: Thus, by way of exemplification, the IC^50 values (inhibitory concentration which lowered the initial rate of ^14 C incorporation to 50% of control) are shown in Table VI, below (Yoshida's Tumor, (U-^14 C) amino acid mixture)
The foregoing data clearly indicate that the compounds of the invention are potent inhibitors of DNA, RNA and protein biosynthesis. This is of significance because the suppression of tumor cells in a host is attained by inhibition of the biosynthesis of DNA, RNA and proteins.

`Cc1c2oc3c(C)ccc(C(=O)N[C@@H]4C(=O)N[C@H](C(C)C)C(=O)N5CCC[C@H]5C(=O)N(C)CC(=O)N(C)[C@@H](C(C)C)C(=O)O[C@@H]4C)c3nc-2c(C(=O)N[C@@H]2C(=O)N[C@H](C(C)C)C(=O)N3CCC[C@H]3C(=O)N(C)CC(=O)N(C)[C@@H](C(C)C)C(=O)O[C@@H]2C)c(N)c1=O` [Actinomycin D] (I: T[dV]P[Sar][NMeV] / II: T[dV]P[Sar][NMeV]; ester I:1-I:C, II:1-II:C; linker I:N-II:N via Actinocin(9to1)) showed an IC50 (substrate (6-3H)uridine) of 1.7 µg/mL.
`O=NN(CCCl)C(=O)NC1CCCCC1` [CCNU] gave an IC50 (substrate L-(U-14C)amino-acid mixture) of 45 µM.
With `Nc1ccn([C@@H]2O[C@H](CO)[C@@H](O)[C@@H]2O)c(=O)n1` [Cytosine arabinoside] the IC50 (substrate (thymine-U-14C)-thymidine) was 2 µM and the IC50 (substrate L-(U-14)amino-acid) was 430 µM.
